Here are results for three compounds from publication PMC10870261, “Photoinduced Hydrogel-Forming Caged Peptides with Improved Solubility” (ACS Omega, 2024).

The subject of data set [1] is A2058 human melanoma cell line. The data set is described as follows: CellTiterGlo viability assay, cells in 2D monolayer or in peptide hydrogel (3D). The class given is cell-based. The following applies: HPAA 1 mM, 96 h, normalized to 2D control, n = 3. The procedure: Human melanoma cell line A2058 was obtained from the European Collection of Authenticated Cell Cultures (ECACC, Salisbury, UK) and was cultured in RPMI 1640 medium supplemented with 10% (v/v %) fetal bovine serum (Biosera Europe, Nuaillé, France), 1% L-glutamine, and 1% penicillin/streptomycin (Gibco, Invitrogen Corporation, New York, USA). Cells were propagated in standard cell culture conditions (37 °C, 5% CO2).
Peptides were dissolved in PBS (1×) at a 1.2 mM concentration. 50–50 μL of the resulting stock solution was added to a 96-well, optical bottom plate. […]
Viability tests were performed using CellTiterGlo (Promega, Madison, WI, USA) reagent to determine the quantity of viable cells in both 2D setups and in hydrogels. […] The luminescence signal was measured by a Fluoroskan FL microplate fluorometer and luminometer (Thermo Scientific, Waltham, MA, USA). […] All quantitative data are presented as the mean ± standard deviation (SD). The results were evaluated with MS Excel and OriginPro 2020 software (OriginLab Corporation, Northampton, MA, USA).
Results were evaluated using MS Excel and OriginPro 2020 software (OriginLab Corp., Northampton, MA, USA). […] Data were statistically analyzed using one-way analysis of variance followed by Tukey’s posthoc test. […]
On the technique in general: ATP-based viability assays read luminescence as a measure of living cells.

The nature of data set [2]: Solubility and handling (observation during purification, spectroscopic measurement). The following applies: aqueous / PBS, qualitative. The class given is physicochemical. The procedure:
To support this change in “behavior” of the caged derivative, spectroscopic (transmittance) measurements were conducted, which confirmed the suppressed aggregation compared to the nonprotected peptide (Figure 1).
Therefore, its purification and characterization could be carried out in the usual way as for peptides (e.g., RP-HPLC and LC–MS).

The conditions of data set [3]: cited from earlier work. The procedure: These turbidity measurements were conducted at a 300 μM concentration, which was also used for in vitro experiments.
Data set [4] can be described thus: Optical transmittance (turbidity) in PBS. The class given is physicochemical. The following applies: 300 μM in PBS (pH 7.4, 1×), 25 °C, 532 nm, after the starting point. The procedure:
Transmittance was measured using an UV–vis spectrophotometer (Jasco V-650, Jasco, Cremella, Italy) in phosphate-buffered saline (PBS, pH 7.4, 1×) buffer.  Figure 1 Optical transmittance of native (nonprotected) EAK16-II peptide and caged-EAK16-II (300 μM) in PBS, 25 °C, 532 nm, 8 h. […] These turbidity measurements were conducted at a 300 μM concentration, which was also used for in vitro experiments.

The subject of data set [5] is A2058 human melanoma cell line. Nature of the data set: Fluorescence microscopy of cellular arrangement in hydrogels (acridine orange). The following applies: A2058 cells, 96 h, acridine orange 0.1 mM, 10× magnification, Z-stacks. Format: cell-based. The procedure: Peptides were dissolved in PBS (1×) at a 1.2 mM concentration. 50–50 μL of the resulting stock solution was added to a 96-well, optical bottom plate. The plate was illuminated with an UV lamp (Sylvania 254 nm, 8 W) for 20 min, followed by the distribution of 50–50 μL of RPMI-1640 medium [supplemented with 10% (v/v %) FBS and 1% L-glutamine, 1% penicillin/streptomycin] into the wells. Then, the plate was incubated for 1 h. For the 3D microscopic imaging of the hydrogels, cells were treated with acridine orange (at 0.1 mM) and incubated for 30 min. Fluorescence measurements were carried out on a Zeiss Celldiscoverer 7 (Zeiss, Jena, Germany) using 10× magnification (Plan-Apochromat λ/0.35 NA objective with 2× tube lens) and acquisition of Z-stacks with 10 μm intervals between individual planes. The images were processed by using ZEN Blue 2.6 software (Carl Zeiss AG, Jena, Germany). Figure 4 (A) Viability of the A2058 human melanoma cell line in native EAK-16-II and caged peptide hydrogels as well as in monolayer (2D) after 96 h. Cell viability was measured using CellTiterGlo assay (Promega, Madison, WI, USA) and normalized to 2D growing cells (control cells) (normalized live cells = 100%). Data are presented as mean values ± standard deviation (SD) from three independent experiments. (B) 3D representation of cellular arrangements in both types of hydrogels. […]

Residues, ends and D or L forms follow the SMILES beside them. *: point of attachment. X1 = O=C(COC(=O)*)c1ccc(O)cc1

Consider `O=C(O)Cc1ccc(O)cc1` [HPAA, p-hydroxyphenylacetic acid], for which the “In vitro cytotoxicity, monolayer (2D)” value in data set [1] (A2058 cells in 2D (plastic surface)) is “did not have any long-term toxic effect”. In addition, in data set [1] (A2058 cells in EAK16-II (300 μM) hydrogel), the “In vitro cytotoxicity, in EAK16-II hydrogel (3D)” value is given as “did not have any long-term toxic effect”.

In the case of `CC(=O)N[C@@H](C)C(=O)N[C@@H](CCC(=O)O)C(=O)N[C@@H](C)C(=O)N[C@@H](CCC(=O)O)C(=O)N[C@@H](C)C(=O)N[C@@H](CCCCNC(=O)OCC(=O)c1ccc(O)cc1)C(=O)N[C@@H](C)C(=O)N[C@@H](CCCCN)C(=O)N[C@@H](C)C(=O)N[C@@H](CCC(=O)O)C(=O)N[C@@H](C)C(=O)N[C@@H](CCC(=O)O)C(=O)N[C@@H](C)C(=O)N[C@@H](CCCCNC(=O)OCC(=O)c1ccc(O)cc1)C(=O)N[C@@H](C)C(=O)N[C@@H](CCCCN)C(N)=O` [caged-EAK16-II] (Ac-AEAEAK(X1)AKAEAEAK(X1)AK-NH2), the Solubility entry in data set [2] was “good solubility”.

For Ac-AEAEAKAKAEAEAKAK-NH2 [EAK16-II], the Critical aggregating concentration in data set [3] is recorded as 0.1 mg/mL. The “Time to "microgelatinization" (sedimentation of peptide aggregates, increase in transmittance)” value in data set [4] was “Around 10 min”. Moreover, in data set [5], the “Cellular arrangement (cellular aggregate formation) in hydrogel” value was “distinct cellular aggregates”.
